Test results: PMC4866600, “Structural basis for the blockade of MATE multidrug efflux pumps” (Nature Communications, 2015)

Tests used:
DinF-BH = target: T1, DinF-BH (Halalkalibacterium halodurans (Bacillus halodurans), UniProt Q9KAX3); experiment: biochemical
T1 sequence (Q9KAX3 1-464): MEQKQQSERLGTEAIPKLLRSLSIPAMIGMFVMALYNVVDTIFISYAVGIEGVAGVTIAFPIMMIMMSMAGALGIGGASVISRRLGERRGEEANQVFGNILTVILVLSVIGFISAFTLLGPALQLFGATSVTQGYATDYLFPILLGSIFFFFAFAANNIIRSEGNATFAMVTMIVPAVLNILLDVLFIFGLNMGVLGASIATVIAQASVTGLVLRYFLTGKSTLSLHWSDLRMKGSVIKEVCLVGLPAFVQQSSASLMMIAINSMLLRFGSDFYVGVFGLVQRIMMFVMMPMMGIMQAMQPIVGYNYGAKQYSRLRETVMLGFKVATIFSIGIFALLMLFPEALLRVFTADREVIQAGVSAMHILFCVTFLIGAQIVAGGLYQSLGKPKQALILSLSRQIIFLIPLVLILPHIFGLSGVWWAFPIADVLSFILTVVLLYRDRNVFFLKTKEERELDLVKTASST
Method: (§1) [^3H]-R6G (2.7 Ci mmol^−1, 1.0 mCi ml^−1) was custom-synthesized by Moravek Biochemicals (Brea, California, USA). [^3H]-R6G binding assay was performed by using immobilized protein on Ni-NTA beads[31][42] as follows. Briefly, freshly purified protein (DinF-BH or NorM-NG) was mixed gently with pre-equilibrated Ni-NTA beads at 1 mg ml^−1 in buffers containing 20 mM Tris-HCl pH 8, 50 mM NaCl, 20% (v/v) glycerol, 0.02% (w/v) DDM, 1 mM TCEP (binding buffer) for >1 h at 4 °C. The mixture was centrifuged and the unbound material (supernatant) was discarded.
(§2) The beads were thoroughly washed, resuspended and aliquoted in the binding buffer. […] The samples were then transferred into micro-columns and centrifuged; the unbound material (flow-through) was discarded. The protein was eluted by using the binding buffer supplemented with 500 mM Imidazole. The radioactivity of the eluate was measured by liquid scintillation. […] All the experiments were performed in duplicate and repeated three times.

NorM-NG = NorM-NG (Neisseria gonorrhoeae, UniProt Q5F9J8); experiment: biochemical; type: binding
Method: as §1, §2

NorM-NG, sequence (Q5F9J8 entry or part of it): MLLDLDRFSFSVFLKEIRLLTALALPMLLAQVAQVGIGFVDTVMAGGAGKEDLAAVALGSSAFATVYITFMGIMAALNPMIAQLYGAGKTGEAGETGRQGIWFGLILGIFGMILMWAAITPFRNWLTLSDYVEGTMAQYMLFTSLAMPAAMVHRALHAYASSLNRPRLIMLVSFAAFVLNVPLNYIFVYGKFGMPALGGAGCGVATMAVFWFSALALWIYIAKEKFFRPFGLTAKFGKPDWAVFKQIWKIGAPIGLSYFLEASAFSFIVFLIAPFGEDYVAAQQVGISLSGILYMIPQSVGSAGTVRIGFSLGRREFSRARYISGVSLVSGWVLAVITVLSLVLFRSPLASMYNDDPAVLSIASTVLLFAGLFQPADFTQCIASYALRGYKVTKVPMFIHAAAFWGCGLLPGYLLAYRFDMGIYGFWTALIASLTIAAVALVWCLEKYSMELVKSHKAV

SMILES | Ki (DinF-BH) | Ki (NorM-NG) | Kd (DinF-BH) | Kd (NorM-NG)
CC[n+]1c(-c2ccccc2)c2cc(N)ccc2c2ccc(N)cc21 [ethidium] | < 25 µM | < 25 µM |  | 
CC/N=c1\cc2oc3cc(NCC)c(C)cc3c(-c3ccccc3C(=O)OCC)c-2cc1C [R6G, rhodamine 6G] | < 10 µM | < 10 µM | ~5 µM | ~5 µM
